Data as given in patent US6635641B2 (Agouron Pharmaceuticals, Inc., priority 2000, dated 2003).
Counter-ions that a name gives are not always drawn. Like-named read-outs stand apart in the source and are kept apart here.

Key:
[1] = target: T1, TEK/Tie-2 intracellular kinase domain (Homo sapiens, UniProt Q02763); experiment: TEK/Tie-2 spectrophotometric assay; assay type: biochemical; settings: read-out: TEK-P percent inhibition
T1 construct: residues 775 to 1124, with methionine added at the N-terminus; made in house; host or cells: baculovirus expression system
T1 sequence (Q02763 775-1124): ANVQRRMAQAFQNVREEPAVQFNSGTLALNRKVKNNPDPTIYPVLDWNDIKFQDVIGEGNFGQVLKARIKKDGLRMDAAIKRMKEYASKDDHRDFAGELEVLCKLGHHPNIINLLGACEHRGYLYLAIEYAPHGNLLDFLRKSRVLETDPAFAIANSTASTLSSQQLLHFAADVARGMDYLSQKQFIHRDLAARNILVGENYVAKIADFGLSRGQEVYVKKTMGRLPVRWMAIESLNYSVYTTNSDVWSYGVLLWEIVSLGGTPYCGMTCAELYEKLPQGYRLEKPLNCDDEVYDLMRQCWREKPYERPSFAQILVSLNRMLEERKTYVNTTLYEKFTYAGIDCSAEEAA
Procedure: The intracellular kinase domain (residues 775 to 1124, with methionine added at the N-terminus) of human TEK/Tie-2 was expressed using the baculovirus vector expression system. For assay purposes, the enzyme was autophosphorylated prior to use by incubation overnight at 4° C., at 10 μM enzyme concentration, with 4 mM ATP, 40 mM MgCl2, and 5 mM DTT in 200 mM Hepes buffer at ph 7.5, in 90:10 water:glycerol.
The production of ADP from ATP that accompanies phosphoryl transfer was coupled to oxidation of NADH using phosphoenolpyruvate (PEP) and a system having pyruvate kinase (PK) and lactic dehydrogenase (LDH). The oxidation of NADH was monitored by following the decrease of absorbance at 340 nm (e340=6.22 cm^−1 mM^−1) using a Beckman DU 650 spectrophotometer. Assay conditions for phosphorylated VEGF-R2Δ50 (indicated as FLVK-P in the tables below) were the following: 1 mM PEP; 250 μM NADH; 50 units of LDH/mL; 20 units of PK/mL; 5 mM DTT; 5.1 mM poly(E4Y1); 1 mM ATP; and 25 mM MgCl2 in 200 mM Hepes, pH 7.5. Assay conditions for unphosphorylated VEGF-R2Δ50 (indicated as FLVK in the tables) were the following: 1 mM PEP; 250 μM NADH; 50 units of LDH/mL; 20 units of PK/mL; 5 mM DTT; 20 mM poly(E4Y1); 3 mM ATP; and 60 mM MgCl2 and 2 mM MnCl2 in 200 mM Hepes, pH 7.5. Assays were initiated with 5 to 40 nM of enzyme. Ki values were determined by measuring enzyme activity in the presence of varying concentrations of test compounds. The data were analyzed using Enzyme Kinetic and Kaleidagraph software.
The spectrophotometric assay was carried out as described above for VEGF-R2, except for the following changes in concentration: TEK/Tie-2=200 nM, MgCl2=40 mM, and ATP=2 mM.

[2] = tested on: lung cancer cells (line MV522); experiment: Cancer cell proliferation (MV522) assay (MTT); assay type: cell-based; settings: MV522
How it was run: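 Proliferation was read by MTT reduction 72 h after compound addition, in a 4-day protocol with no starvation step. Two thousand MV522 cells were seeded in RPMI1640 with 10% FBS and 2 mM glutamine and given 1 day to attach before dosing.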

[3] = tested on: human umbilical vein endothelial cells (HUVEC); experiment: HUVEC proliferation assay (VEGF-stimulated, MTT); assay type: cell-based; settings: Homo sapiens, HUVEC
How it was run: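 Exponentially growing HUVEC (passage 3-4) were serum-starved 24 h in F12K + 1% FBS, given test compound (final DMSO 0.1%), then stimulated 1 h later with VEGF at 6 ng/ml final. Proliferation read after 72 h by 4 h MTT dye reduction, absorbance at 595.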

[4] = target: T2, LCK tyrosine kinase (Homo sapiens, UniProt P06239, C224D/P223M); experiment: LCK spectrophotometric assay; assay type: biochemical; settings: read-out: LCK-P Ki;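 note: recombinant LCK kinase activity on poly(E4Y1), ADP formation coupled through PK/LDH to NADH oxidation, followed as absorbance loss at 340 nm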
T2 construct: starting from amino acid residue 223 to the end of the protein at residue 509; made in house; host or cells: insect cells
T2 sequence (P06239 223-509 P223M/C224D): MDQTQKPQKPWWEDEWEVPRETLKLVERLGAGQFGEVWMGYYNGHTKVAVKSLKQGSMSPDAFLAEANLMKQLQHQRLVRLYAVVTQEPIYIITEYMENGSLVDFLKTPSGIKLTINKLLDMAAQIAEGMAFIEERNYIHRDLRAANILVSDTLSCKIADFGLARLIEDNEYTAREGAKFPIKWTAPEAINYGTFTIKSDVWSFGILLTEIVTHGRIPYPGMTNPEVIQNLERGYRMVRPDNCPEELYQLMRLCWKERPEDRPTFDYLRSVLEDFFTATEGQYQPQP

[5] = target: T3, unphosphorylated VEGF-R2Δ50 (FLVK) (Homo sapiens, UniProt P35968, DEL940-989/E990V); experiment: VEGF-R2 coupled spectrophotometric assay, unphosphorylated construct (FLVK); assay type: biochemical;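 note: Baculovirus-expressed cytosolic kinase domain, ADP formation linked via pyruvate kinase and lactate dehydrogenase to NADH oxidation, read as falling absorbance at 340 nm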
T3 construct: VEGF-R2Δ50 contains residues 806-939 and 990-1171; made in house; host or cells: baculovirus/insect cells
T3 sequence (P35968 with tags, fused parts or gaps DEL940-989/E990V limits assumed): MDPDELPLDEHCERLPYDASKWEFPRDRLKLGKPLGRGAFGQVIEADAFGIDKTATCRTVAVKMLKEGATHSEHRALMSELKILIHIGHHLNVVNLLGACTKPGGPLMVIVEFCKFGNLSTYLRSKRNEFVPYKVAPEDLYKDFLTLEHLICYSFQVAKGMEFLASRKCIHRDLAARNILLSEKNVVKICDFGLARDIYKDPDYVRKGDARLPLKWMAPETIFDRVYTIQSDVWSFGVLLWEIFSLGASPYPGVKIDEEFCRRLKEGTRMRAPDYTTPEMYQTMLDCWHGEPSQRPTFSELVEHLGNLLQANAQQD

[6] = target: T4, phosphorylated VEGF-R2Δ50 (FLVK-P) (Homo sapiens, UniProt P35968, DEL940-989/E990V); experiment: VEGF-R2 coupled spectrophotometric assay, phosphorylated construct (FLVK-P); assay type: biochemical
T4 construct: VEGF-R2Δ50 contains residues 806-939 and 990-1171; made in house; host or cells: baculovirus/insect cells
T4 sequence (P35968 with tags, fused parts or gaps DEL940-989/E990V limits assumed): as above
How it was run: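 Baculovirus-expressed VEGF-R2Δ50 (residues 806-939/990-1171, E990V), optionally autophosphorylated; ADP formation coupled via PK/LDH to NADH oxidation at 340 nm, pH 7.5 Hepes. FLVK-P: 1 mM ATP, 5.1 mM poly(E4Y1), 25 mM MgCl2; FLVK: 3 mM ATP, 20 mM poly(E4Y1), 60 mM MgCl2, 2 mM MnCl2. Ki from activity over compound concentrations.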

[7] = target: T5, FGF-R1 intracellular kinase domain (Homo sapiens, UniProt P11362, C488A/C584S/L457V); experiment: FGF-R spectrophotometric assay; assay type: biochemical; settings: read-out: FGF-P Ki
T5 construct: starting from the endogenous methionine residue 456 to glutamate 766; made in house; host or cells: baculovirus expression system
T5 sequence (P11362 456-766 L457V/C488A/C584S): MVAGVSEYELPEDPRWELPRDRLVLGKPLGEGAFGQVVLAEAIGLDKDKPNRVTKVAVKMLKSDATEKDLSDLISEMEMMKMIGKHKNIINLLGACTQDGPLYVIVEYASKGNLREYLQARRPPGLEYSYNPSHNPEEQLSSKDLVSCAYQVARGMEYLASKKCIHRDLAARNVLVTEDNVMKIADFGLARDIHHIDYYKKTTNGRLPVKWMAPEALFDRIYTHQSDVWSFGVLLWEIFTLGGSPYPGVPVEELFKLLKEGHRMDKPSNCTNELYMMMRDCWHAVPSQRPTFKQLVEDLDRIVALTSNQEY

[8] = target: T6, CDK4/Cyclin D3 complex (Homo sapiens, UniProt P11802); experiment: CDK4/Cyclin D assay ([32P]ATP incorporation into Rb fragment); assay type: biochemical; settings: μM
T6 construct: made in house; host or cells: insect cells co-infected with baculovirus vectors
T6 sequence (P11802 whole entry, the tested form may be a part): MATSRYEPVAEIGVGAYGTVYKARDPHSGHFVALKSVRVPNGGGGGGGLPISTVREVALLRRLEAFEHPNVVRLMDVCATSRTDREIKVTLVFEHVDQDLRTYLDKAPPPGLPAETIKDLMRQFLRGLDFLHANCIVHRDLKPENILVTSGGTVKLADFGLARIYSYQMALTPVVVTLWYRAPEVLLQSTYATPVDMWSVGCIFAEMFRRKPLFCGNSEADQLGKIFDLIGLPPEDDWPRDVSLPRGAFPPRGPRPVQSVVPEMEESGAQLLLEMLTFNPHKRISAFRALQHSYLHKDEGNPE
T6 sequence (P30281 whole entry partner, the tested form may be a part): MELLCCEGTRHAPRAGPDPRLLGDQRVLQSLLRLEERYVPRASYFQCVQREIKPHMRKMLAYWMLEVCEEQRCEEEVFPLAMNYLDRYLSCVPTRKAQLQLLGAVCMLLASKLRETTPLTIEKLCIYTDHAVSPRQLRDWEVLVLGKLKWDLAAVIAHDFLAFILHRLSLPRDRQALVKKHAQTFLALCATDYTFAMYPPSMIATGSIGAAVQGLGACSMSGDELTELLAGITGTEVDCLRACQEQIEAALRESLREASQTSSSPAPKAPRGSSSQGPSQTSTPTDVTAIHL
Procedure: A complex of human CDK4 and cyclin D3, or a complex of cyclin D1 and a fusion protein of human CDK4 and glutathione-S-transferase (GST-CDK4), was purified using traditional biochemical chromatographic techniques from insect cells that had been co-infected with the corresponding baculovirus expression vectors.
(§1) Cyclin-dependent kinase activity was measured by quantifying the enzyme-catalyzed, time-dependent incorporation of radioactive phosphate from [^32P]ATP into a recombinant fragment of the retinoblastoma protein. Unless noted otherwise, assays were performed in 96-well plates in a total volume of 50 μL, in the presence of 10 mM HEPES (N-[2-hydroxyethyl]piperazine-N′-[2-ethanesulfonic acid]) (pH 7.4), 10 mM MgCl2, 25 μM adenosine triphosphate (ATP), 1 mg/mL ovalbumin, 5 μg/mL leupeptin, 1 mM dithiothreitol, 10 mM β-glycerophosphate, 0.1 mM sodium vanadate, 1 mM sodium fluoride, 2.5 mM ethylene glycol-bis(β-aminoethyl ether)-N,N,N′N′-tetraacetic acid (EGTA), 2% (v/v) dimethylsulfoxide, and 0.03-0.2 μCi [^32P]ATP. The substrate (0.3-0.5 μg) was purified recombinant retinoblastoma protein fragment (Rb) (residues 386-928 of the native retinoblastoma protein; 62.3 kDa, containing the majority of the phosphorylation sites found in the native 106-kDa protein, as well as a tag of six histidine residues for ease of purification). Reactions were initiated with CDK2 (150 nM CDK2/Cyclin A complex) or CDK4 (50 nM CDK4/Cyclin D3 complex), incubated at 30° C., and terminated after 20 minutes by the addition of ethylenediaminetetraacetic acid (EDTA) to 250 mM. The phosphorylated substrate was then captured on a nitrocellulose membrane using a 96-well filtration manifold, and unincorporated radioactivity was removed by repeated washing with 0.85% phosphoric acid. Radioactivity was quantified by exposing the dried nitrocellulose membranes to a phosphorimager. Apparent Ki values were measured by assaying enzyme activity in the presence of different compound concentrations and subtracting the background radioactivity measured in the absence of enzyme. The kinetic parameters (kcat, Km for ATP) were measured for each enzyme under the usual assay conditions by determining the dependence of initial rates on ATP concentration. The data were fit to an equation for competitive inhibition using Kaleidagraph (Synergy Software), or were fit to an equation for competitive tight-binding inhibition using the software KineTic (BioKin, Ltd.). Measured Ki values for known inhibitors against CDK4 and CDK2 agreed with published IC50 values. The specific activity of CDK4 was the same whether complexed to full-length cyclin D3 or the truncated Cyclin D3 construct; both complexes also yielded very similar Ki values for selected inhibitors.

[9] = target: CDK2/Cyclin A complex (Homo sapiens, UniProt P24941); experiment: CDK2/Cyclin A assay ([32P]ATP incorporation into Rb fragment); assay type: biochemical; settings: μM
Procedure: CDK2 was purified using published methodology (Rosenblatt et al., J. Mol. Biol., 230, 1317-1319 (1993)) from insect cells that had been infected with a baculovirus expression vector. Cyclin A was purified from E. coli cells expressing full-length recombinant cyclin A, and a truncated cyclin A construct was generated by limited proteolysis and purified as described previously (Jeffrey et al., Nature, 376, 313-320 (1995)).
as §1, with “The specific activity of CDK4 was the same whether complexed to full-length cyclin D3 or the truncated Cyclin D3 construct; both complexes also yielded very similar Ki values for selected inhibitors.” left out

[10] = target: T7, FL-CHK-1 (Homo sapiens, UniProt O14757); experiment: CHK-1 coupled spectrophotometric assay (Syntide-2); assay type: biochemical
T7 construct: C-terminally His-tagged full-length human CHK-1 (FL-CHK-1); made in house; host or cells: baculovirus/insect cells
T7 sequence (O14757 1-476): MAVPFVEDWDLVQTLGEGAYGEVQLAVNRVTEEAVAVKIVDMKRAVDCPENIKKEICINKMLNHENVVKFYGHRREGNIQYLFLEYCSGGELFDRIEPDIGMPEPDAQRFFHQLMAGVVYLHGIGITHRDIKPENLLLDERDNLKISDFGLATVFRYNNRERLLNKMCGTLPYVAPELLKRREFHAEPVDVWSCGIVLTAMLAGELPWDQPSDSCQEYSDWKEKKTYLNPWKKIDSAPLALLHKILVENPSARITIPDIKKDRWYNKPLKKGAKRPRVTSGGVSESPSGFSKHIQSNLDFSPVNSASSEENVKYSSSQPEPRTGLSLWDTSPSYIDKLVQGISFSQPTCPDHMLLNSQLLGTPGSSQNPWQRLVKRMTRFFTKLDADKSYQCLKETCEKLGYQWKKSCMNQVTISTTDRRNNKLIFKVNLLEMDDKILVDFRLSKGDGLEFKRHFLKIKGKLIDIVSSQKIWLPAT
From the text: C-terminally His-tagged full-length human CHK-1 (FL-CHK-1) was expressed using the baculovirus/insect cell system. It contains 6 histidine residues (6×His-tag) at the C-terminus of the 476 amino acid human CHK-1. The protein was purified by conventional chromatographic techniques.
The production of ADP from ATP that accompanies phosphoryl transfer to the synthetic substrate peptide Syntide-2 ([…]) was coupled to oxidation of NADH using phosphoenolpyruvate (PEP) through the actions of pyruvate kinase (PK) and lactic dehydrogenase (LDH). The oxidation of NADH was monitored by following the decrease of absorbance at 340 nm (ε340=6.22 cm−1 mM^−1) using a HP8452 spectrophotometer. Typical reaction solutions contained: […]; 0.15 mM NADH; 28 units of LDH/ml; 16 units of PK/ml; 3 mM DTT; 0.125 mM Syntide-2; 0.15 mM ATP; 25 mM MgCl2 in 50 mM TRIS, pH 7.5; and 400 mM NaCl. Assays were initiated with 10 nM of FL-CHK-1. Ki values were determined by measuring initial enzyme activity in the presence of varying concentrations of test compounds. The data were analyzed using Enzyme Kinetic and Kaleidagraph software.

[11] = with albumin, read-out: Huvec + Albumin IC50

inhibition at 1 µM [1] | IC50 [2] | Ki [4] | Ki [5] | Ki [6] | Ki [7] | Ki [8] | melting point | Ki [9] | Ki [10] | Compound | IC50 ([3]; read-out: HUVEC IC50) | IC50 [3, 11]
62% | 8700 nM | 5.8 nM | 0.035 nM | 0.73 nM | 20 nM |  |  |  |  | COc1ccc(Nc2cc(CCc3cccc(C(=O)Nc4ccc(N5CCCC5)c(C(F)(F)F)c4)c3)[nH]n2)cn1 [Example G-8, 3-{2-[5-(6-Methoxypyridin-3-yl)amino-2H-pyrazol-3-yl]-ethyl}-N-(4-pyrrolidin-1-yl-3-trifluoromethylphenyl)benzamide] | 12 nM | 114 nM
 | > 10000 nM |  | 0.95 nM | 4.79 nM |  | > 100 µM | 67 to 69 °C | > 100 µM |  | COc1cc(NC(=O)c2cccc(SCc3cc(Nc4ccccc4)n[nH]3)c2)cc(OC)c1OC [Example E-2] | 55 nM | 
 | > 10000 nM |  | 3.4 nM | 1.66 nM |  |  |  |  | 26000 nM | Cc1ccc2cc(NC(=O)c3cccc(OCc4cncc5ccccc45)c3)ccc2n1 [Example K-3, 3-(Isoquinolin-4-yl)methoxy-N-(2-methyl-quinolin-6-yl)-benzamide hydrochloride] | 430 nM | 
14% | > 10000 nM | 27 nM | 0.25 nM | 0.65 nM | 23 nM |  |  |  |  | COc1ccc(Nc2cc(CCc3cccc(C(=O)Nc4cc(Cl)c(N(C)C)c(Cl)c4)c3)[nH]n2)cn1 [Example G-7, N-(3,5-Dichloro-4-dimethylaminophenyl)-3-{2-[5-(6-methoxy-pyridin-3-yl)amino-2H-pyrazol-3-yl]ethyl}benzamide] | 17 nM | 190 nM
